Several values for one entry are separate records, joined by “and”; a condition that tells them apart may be missing. Identical values can stand only once.
Columns and labels:
FLT1 (VEGFR1) = target: T1, FLT1 (VEGFR1) (Homo sapiens, UniProt P17948); test: VEGFR1 Kinase-Glo kinase assay; type: biochemical
T1 construct: VEGFR1 (residues R781-I1338); made in house
Procedure: The FLT3 inhibitors, BPR1J-340 and AC220, were synthesized by our laboratory. The histone deacetylase inhibitor vorinostat (SAHA) was purchased from SelleckBio (Houston, TX, USA). All inhibitors were dissolved in dimethylsulfoxide (DMSO) at a stock concentration of 10 mM. The anti-FLT3 (sc-480, Santa Cruz Biotechnology, Santa Cruz, CA, USA), anti-pFLT3-Tyr591 (#3461, Cell Signaling Technology, Beverly, MA, USA) anti-STAT5 (#9363, Cell Signaling Technology), anti-pSTAT5–Tyr694 (#9351, Cell Signaling Technology), anti-cleaved poly ADP-ribose polymerase (PARP) (#9542, Cell Signaling Technology), anti-Mcl-1 (#4572, Cell Signaling Technology), anti-caspase 3 (#9662, Cell Signaling Technology) and anti-β-actin (Gtx110546, GeneTex, Irvine, CA, USA) antibodies were purchased for Western blotting analysis. The preparation of recombinant proteins, FLT3 (residues Y567-S993), VEGFR1 (residues R781-I1338) and VEGFR2 (residues V789-V1356), for biochemical kinase assay was described previously. The VEGFR3 (residues M800-Y1363) proteins were purchased from Upstate (Billerica, MA, USA).
The FLT3 and VEGFR1/2 Kinase-Glo kinase assays were performed as reported by our earlier study. […] The kinase inhibition profiling and inhibitory activity of FLT3-D835Y, CSF1R, and TRKA were determined by Invitrogen SelectScreen® kinase profiling service (Carlsbad, California, USA).

[1] = Pharmacokinetic analysis in rats; type: in vivo, Sprague-Dawley rats
Procedure: The uses of animals were approved by The Institutional Care and Use Committee of the National Health Research Institutes. Briefly, male Sprague-Dawley rats weighing 300–400 g each were obtained from BioLASCO, Taiwan Co., Ltd., Ilan, Taiwan. One day prior dosing, rats were surgically prepared with a jugular-vein cannula and fasted overnight (∼18–20 hr). Water was available ad libitum. Food was provided at 4 hours after dosing. Single 1.5 mg/kg intravenous dose of BPR1J-340, as a PEG400/water (80/20, v/v) solution, was separately administered to groups of 3 rats each via the jugular-vein cannula. At 0 (prior to dosing), 2, 5, 15 and 30 min. and at 1, 2, 4, 6, 8 and 24 hr after dosing, a blood sample was collected. Plasma was separated from the blood by centrifugation (14,000 g for 15 min at 4°C in a Beckman Model AllegraTM 6R centrifuge) and stored in a freezer (−20°C) until analysis. All plasma samples were analyzed by LC-MS/MS. Plasma concentration data were analyzed with non-compartmental method for pharmacokinetic determination.

MV4;11 cells = test: Apoptosis induction, caspase-3 and PARP cleavage by Western blot; type: cell-based, human; details: MV4;11, 10 nM, 24 hours
Procedure: (§1) Cells were lysed in lysis buffer (50 mM Tris, pH 8.0, 150 mM NaCl, 1% Triton X-100, 0.5% sodium deoxycholate, 0.1% SDS, 1 mM sodium orthovanadate, 1 mM PMSF, and 1 mM DTT). Protein lysates were resolved by SDS-PAGE and transferred onto a polyvinylidene difluoride (PVDF) membrane (Millipore, Bedford, MA, USA). The membranes were immunoblotted with appropriate antibodies and detected using the SuperSignal reagent (Pierce, Rockford, IL, USA) followed by exposure to X-ray film.
(§2) As the inhibition of FLT3 signaling results in a loss of growth potential and an induction of apoptosis in FLT3-ITD expressing cells, the effects of BPR1J-340 on cell apoptotic response in FLT3-ITD^+ cells was investigated. The MOLM-13 and MV4;11 cells were treated with BPR1J-340 at different concentrations for 24 hours and analyzed for the induction of apoptosis using active caspase-3 and cleaved PARP (poly-ADP-ribose polymerase) analysis.
(§3) Figure 3 BPR1J-340 induces apoptosis in MOLM-13 and MV4;11 cells. […] MOLM-13 (A) and MV4;11 (B) cells were treated with BPR1J-340 at the indicated concentrations for 24 hours, and the cell lysates were then subjected to Western blot analysis using antibodies against caspase-3 and PARP (poly-ADP-ribose polymerase). (full length caspase-3 (FL-caspase-3), cleavage of caspase-3 (CL-caspase-3), full length poly(ADP-ribose) polymerase (FL-PARP), cleavage of PARP (CL-PARP)).

MOLM-13 cells = test: as above; type: cell-based, human; details: MOLM-13, 10 nM, 24 hours
Procedure: as §1, §2, §3

FLT3-WT = target: T2, FLT3-WT (Homo sapiens, UniProt P36888); test: FLT3 phosphorylation in transfected HEK293T cells, Western blot; type: cell-based; details: HEK293T cells expressing FLT3-WT, 1 hr, FLT3 ligand 50 ng/mL 5 min
T2 construct: expressed in transfected cells; host or cells: HEK293T
T2 sequence (P36888 27-993): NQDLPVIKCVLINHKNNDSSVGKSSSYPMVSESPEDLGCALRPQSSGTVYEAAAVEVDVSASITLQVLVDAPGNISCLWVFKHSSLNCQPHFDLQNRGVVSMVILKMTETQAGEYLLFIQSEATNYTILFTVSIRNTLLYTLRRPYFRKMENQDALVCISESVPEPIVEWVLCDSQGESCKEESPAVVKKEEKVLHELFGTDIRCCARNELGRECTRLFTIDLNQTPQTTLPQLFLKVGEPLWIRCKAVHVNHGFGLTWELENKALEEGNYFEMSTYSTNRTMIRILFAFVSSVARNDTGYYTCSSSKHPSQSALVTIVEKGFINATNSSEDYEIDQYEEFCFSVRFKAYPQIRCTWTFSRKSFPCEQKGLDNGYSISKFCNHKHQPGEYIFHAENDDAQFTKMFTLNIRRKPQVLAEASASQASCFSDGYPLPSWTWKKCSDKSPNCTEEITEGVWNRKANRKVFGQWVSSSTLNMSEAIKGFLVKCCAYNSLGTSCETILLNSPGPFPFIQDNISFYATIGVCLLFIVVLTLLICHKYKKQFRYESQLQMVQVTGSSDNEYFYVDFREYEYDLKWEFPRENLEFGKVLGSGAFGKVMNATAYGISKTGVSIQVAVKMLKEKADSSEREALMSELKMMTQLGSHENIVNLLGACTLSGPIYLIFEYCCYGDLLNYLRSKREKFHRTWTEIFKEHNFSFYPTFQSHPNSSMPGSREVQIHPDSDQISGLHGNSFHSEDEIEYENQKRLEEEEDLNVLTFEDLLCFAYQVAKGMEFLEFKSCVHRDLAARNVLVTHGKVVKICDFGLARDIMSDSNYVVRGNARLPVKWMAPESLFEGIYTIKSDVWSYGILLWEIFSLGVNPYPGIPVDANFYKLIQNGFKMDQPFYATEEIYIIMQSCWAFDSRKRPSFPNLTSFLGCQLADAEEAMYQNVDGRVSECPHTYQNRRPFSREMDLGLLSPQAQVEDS
Procedure: as §1
(§4) To address whether BPR1J-340 was able to inhibit the FLT3 signaling pathway in FLT3-driven cells, MV4;11 cells were treated with different concentrations of BPR1J-340 for 1 hour, and the phosphorylation status of FLT3 and STAT5 (Signal Transducer and Activator of Transcription 5), a critical down-stream modulator that plays a major role in FLT3-ITD signal transduction for cell expansion and survival, was examined by Western blot analysis. […] To investigate the difference in sensitivity between FLT3-WT and the activating mutants FLT3-ITD and FLT3-D835Y to BPR1J-340, HEK293T cells engineered to express FLT3-WT or mutants FLT3 (FLT3-ITD, FLT3-D835Y) were analyzed. […]
(§5) Figure 2 BPR1J-340 inhibits FLT3-dependent signaling. […] The phosphorylation status of FLT3 and STAT5 were evaluated by Western blot analysis. […] The FLT3 phosphorylation status in the transfected cells was evaluated by Western blot analysis.

FLT3-ITD = FLT3-ITD (Homo sapiens, UniProt P36888, ITD); test: as above; type: cell-based; details: HEK293T cells expressing FLT3-ITD, 1 hr, FLT3 ligand 50 ng/mL 5 min
Chain of FLT3-ITD (P36888 27-993, change not shown): as the sequence (P36888 27-993) above
Procedure: as §1, §4, §5

T1 sequence (P17948 781-1338): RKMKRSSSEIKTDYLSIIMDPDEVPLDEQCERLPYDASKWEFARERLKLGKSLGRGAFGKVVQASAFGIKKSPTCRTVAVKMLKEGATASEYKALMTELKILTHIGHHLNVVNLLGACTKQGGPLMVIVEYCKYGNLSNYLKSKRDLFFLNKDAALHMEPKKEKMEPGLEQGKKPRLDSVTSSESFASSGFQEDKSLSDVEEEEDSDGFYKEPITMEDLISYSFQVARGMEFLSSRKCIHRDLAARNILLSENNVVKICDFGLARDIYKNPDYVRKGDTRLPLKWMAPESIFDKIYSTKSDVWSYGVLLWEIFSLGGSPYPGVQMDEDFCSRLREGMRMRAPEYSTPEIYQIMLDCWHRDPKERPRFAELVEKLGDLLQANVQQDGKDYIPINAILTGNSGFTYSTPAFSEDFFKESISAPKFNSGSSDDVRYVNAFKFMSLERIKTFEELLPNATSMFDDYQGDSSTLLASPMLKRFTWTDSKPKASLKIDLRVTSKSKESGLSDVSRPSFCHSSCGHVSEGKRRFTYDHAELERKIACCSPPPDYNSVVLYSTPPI

Which results are given for `CCc1cc(NC(=O)NCc2ccc(-c3cc(NC(=O)c4ccc(CN5CCN(C)CC5)cc4)[nH]n3)cc2)no1` [BPR1J-340, N1-(3-4-[([(5-ethyl-3-isoxazolyl)amino]carbonylamino)methyl]phenyl-1H-5-pyrazolyl)-4-[(4-methylpiperazino)methyl]benzamide]?
IC50 (FLT1 (VEGFR1)): 164 ± 24 nM; maximum plasma concentration ([1]; Rat IV 1.5 mg/kg, at 2 min after dosing, 1.5 mg/kg): 7.9 µM and 4,296 ng/mL; plasma concentration maintained for 6 hours ([1]; Rat IV 1.5 mg/kg, for 6 hours): exceeded 80 ng/mL; T1/2 ([1]; Rat IV, dose 1.5 mg/kg, listed as BRP1J-340, 1.5 mg/kg): 8.8 ± 0.6 h; maximum achievable plasma concentration above the IC50 for FLT3-ITD inhibition ([1]; Rat, single 1.5 mg/kg): more than 272 fold; concentration at 24 h ([1]; male, Sprague-Dawley, plasma, Rat IV 1.5 mg/kg, 24 hour after dosing, read-out: plasma concentration C24 hour): 9.9 ng/mL and 18 nM; clearance ([1]; male, Sprague-Dawley, plasma, Rat IV, dose 1.5 mg/kg): 20.4 ± 5.2 mL/min/kg; AUC(0-t) ([1]; male, Sprague-Dawley, plasma, Rat IV, dose 1.5 mg/kg, read-out: AUC(0–24)): 1130 ± 260 ng·h/mL; Vd ([1]; male, Sprague-Dawley, plasma, Rat IV, dose 1.5 mg/kg, read-out: Vss): 10.3 ± 2.5 L/kg; half-life ([1]; male, Sprague-Dawley, rat, plasma, iv, 1.5 mg/kg, Rat IV): ~528 min; cleavage of caspase-3 and PARP (apoptosis) (MV4;11 cells): significant cleavage; cleavage of caspase-3 and PARP (apoptosis) (MOLM-13 cells): significant cleavage; IC50 (FLT3-WT): 10 to 100 nM; IC50 (FLT3-ITD): 10 to 100 nM
